From PubChem BioAssay AID588617 (The Scripps Research Institute Molecular Screening Center, 2011)

Target: Krueppel-like factor 5 (Homo sapiens) (UniProt Q13887)
Experiment: change in KLF5 protein levels, late-stage follow-up, counter-screen for KLF5 inhibitor project, western blot, chemiluminescence, DLD-1 cells (AID 588617)
Settings: 24 h, at 10 µM, stronger effect = higher value

Chain of Krueppel-like factor 5 (Homo sapiens) (Q13887 whole entry, looked up): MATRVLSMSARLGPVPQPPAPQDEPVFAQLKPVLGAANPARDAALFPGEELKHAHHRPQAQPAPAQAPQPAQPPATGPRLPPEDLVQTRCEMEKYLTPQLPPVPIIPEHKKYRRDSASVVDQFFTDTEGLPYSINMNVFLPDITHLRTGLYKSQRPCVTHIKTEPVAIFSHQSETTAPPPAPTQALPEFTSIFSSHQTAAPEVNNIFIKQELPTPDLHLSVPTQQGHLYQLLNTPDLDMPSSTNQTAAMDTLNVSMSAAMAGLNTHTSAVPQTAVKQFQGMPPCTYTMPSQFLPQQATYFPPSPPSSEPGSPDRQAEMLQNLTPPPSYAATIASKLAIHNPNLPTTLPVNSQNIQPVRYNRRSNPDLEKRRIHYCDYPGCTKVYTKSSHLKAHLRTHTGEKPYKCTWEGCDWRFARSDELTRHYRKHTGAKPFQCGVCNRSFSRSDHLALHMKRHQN

- inhibition: 30.1%
Compound: CN(C(=O)COC(=O)/C=C/c1cccc([N+](=O)[O-])c1)C1CCS(=O)(=O)C1 (stereo unspecified)
